Measurements taken from patent US20230151049A1, “Compounds Useful in HIV Therapy” (priority 2020, published 2023).
Read-outs that look alike come from different tables or passages of the source.

Test: in vivo
Conditions: for concentration at 1 day / concentration at 7 day / concentration at 14 day / concentration at 21 day / concentration at 28 day / concentration at 35 day / concentration at 42 day / concentration at 49 day / concentration at 56 day / concentration at 63 day / concentration at 70 day / concentration at 77 day / concentration at 84 day: male, Wistar Han, rat, in vivo; for concentration at 1 day: day 1
Outline: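 Three male Wistar Han rats (200-250 g), not fasted, received a single intramuscular gastrocnemius injection of prodrug suspension at 20 mg/kg EFdA equivalent. Tail-vein blood was taken into NaF/Na2EDTA, mixed 1:1 with 100 mM ammonium acetate pH 4, frozen, and analysed by LC-MS/MS.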

## C#C[C@]1(COP(=O)(N[C@@H](Cc2cc(F)cc(F)c2)C(=O)OCCCCCCCCCCCCCCCC)Oc2ccccc2)O[C@@H](n2cnc3c(N)nc(F)nc32)C[C@@H]1O (single isomer, unassigned) [Example 39A]
Day 28, single IM Example 39A 58 mg/kg
  Mean concentration of EFdA: BQL (BQL = below quantification limit, 0.3 ng/mL for both)
Day 35, single IM Example 39A 58 mg/kg
  Mean concentration of EFdA: BQL (BQL = below quantification limit, 0.3 ng/mL for both)
Day 42, single IM Example 39A 58 mg/kg
  Mean concentration of EFdA: BQL (BQL = below quantification limit, 0.3 ng/mL for both)
Day 49, single IM Example 39A 58 mg/kg
  Mean concentration of EFdA: BQL (BQL = below quantification limit, 0.3 ng/mL for both)
Day 56, single IM Example 39A 58 mg/kg
  Mean concentration of EFdA: BQL (BQL = below quantification limit, 0.3 ng/mL for both)
Day 63, single IM Example 39A 58 mg/kg
  Mean concentration of EFdA: BQL (BQL = below quantification limit, 0.3 ng/mL for both)
Day 70, single IM Example 39A 58 mg/kg
  Mean concentration of EFdA: BQL (BQL = below quantification limit, 0.3 ng/mL for both)
Day 77, single IM Example 39A 58 mg/kg
  Mean concentration of EFdA: BQL (BQL = below quantification limit, 0.3 ng/mL for both)
Day 84, single IM Example 39A 58 mg/kg
  Mean concentration of EFdA: BQL (BQL = below quantification limit, 0.3 ng/mL for both)
Single IM Example 39A 58 mg/kg, read-out: Mean concentration of Example 39A
  concentration at 1 day: 17 ng/mL
Day 7, single IM Example 39A 58 mg/kg, read-out: Mean concentration of Example 39A
  concentration at 7 day: 13.2 ng/mL
Day 14, single IM Example 39A 58 mg/kg, read-out: Mean concentration of Example 39A
  concentration at 14 day: 6.43 ng/mL
Day 21, single IM Example 39A 58 mg/kg, read-out: Mean concentration of Example 39A
  concentration at 21 day: 8.77 ng/mL
Day 28, single IM Example 39A 58 mg/kg, read-out: Mean concentration of Example 39A
  concentration at 28 day: 7.98 ng/mL
Day 35, single IM Example 39A 58 mg/kg, read-out: Mean concentration of Example 39A
  concentration at 35 day: 3.56 ng/mL
Day 42, single IM Example 39A 58 mg/kg, read-out: Mean concentration of Example 39A
  concentration at 42 day: 2.61 ng/mL
Day 49, single IM Example 39A 58 mg/kg, read-out: Mean concentration of Example 39A
  concentration at 49 day: 2.45 ng/mL
Day 56, single IM Example 39A 58 mg/kg, read-out: Mean concentration of Example 39A
  concentration at 56 day: 3.42 ng/mL
Day 63, single IM Example 39A 58 mg/kg, read-out: Mean concentration of Example 39A
  concentration at 63 day: 2.7 ng/mL
Day 70, single IM Example 39A 58 mg/kg, read-out: Mean concentration of Example 39A
  concentration at 70 day: 1.68 ng/mL
Day 77, single IM Example 39A 58 mg/kg, read-out: Mean concentration of Example 39A
  concentration at 77 day: 1.18 ng/mL
Day 84, single IM Example 39A 58 mg/kg, read-out: Mean concentration of Example 39A
  concentration at 84 day: 1.39 ng/mL

## C#C[C@]1(COP(=O)(N[C@@H](Cc2cc(F)cc(F)c2)C(=O)OCCCCCCCCCCCCCCCCCC)Oc2ccccc2)O[C@@H](n2cnc3c(N)nc(F)nc32)C[C@@H]1O (single isomer, unassigned) [Example 40A]
Day 14, single IM Example 40A 60 mg/kg
  Mean concentration of EFdA: BQL (BQL = below quantification limit, 0.3 ng/ml for both)
Day 21, single IM Example 40A 60 mg/kg
  Mean concentration of EFdA: BQL (BQL = below quantification limit, 0.3 ng/ml for both)
Day 28, single IM Example 40A 60 mg/kg
  Mean concentration of EFdA: BQL (BQL = below quantification limit, 0.3 ng/ml for both)
Day 35, single IM Example 40A 60 mg/kg
  Mean concentration of EFdA: BQL (BQL = below quantification limit, 0.3 ng/ml for both)
Day 42, single IM Example 40A 60 mg/kg
  Mean concentration of EFdA: BQL (BQL = below quantification limit, 0.3 ng/ml for both)
Day 49, single IM Example 40A 60 mg/kg
  Mean concentration of EFdA: BQL (BQL = below quantification limit, 0.3 ng/ml for both)
Day 56, single IM Example 40A 60 mg/kg
  Mean concentration of EFdA: BQL (BQL = below quantification limit, 0.3 ng/ml for both)
Day 63, single IM Example 40A 60 mg/kg
  Mean concentration of EFdA: BQL (BQL = below quantification limit, 0.3 ng/ml for both)
Day 70, single IM Example 40A 60 mg/kg
  Mean concentration of EFdA: BQL (BQL = below quantification limit, 0.3 ng/ml for both)
Day 77, single IM Example 40A 60 mg/kg
  Mean concentration of EFdA: BQL (BQL = below quantification limit, 0.3 ng/ml for both)
Day 84, single IM Example 40A 60 mg/kg
  Mean concentration of EFdA: BQL (BQL = below quantification limit, 0.3 ng/ml for both)
Single IM Example 40A 60 mg/kg, read-out: Mean concentration of Example 40A
  concentration at 1 day: 59.2 ng/mL
Day 7, single IM Example 40A 60 mg/kg, read-out: Mean concentration of Example 40A
  concentration at 7 day: 22.4 ng/mL
Day 14, single IM Example 40A 60 mg/kg, read-out: Mean concentration of Example 40A
  concentration at 14 day: 11.2 ng/mL
Day 21, single IM Example 40A 60 mg/kg, read-out: Mean concentration of Example 40A
  concentration at 21 day: 11.2 ng/mL
Day 28, single IM Example 40A 60 mg/kg, read-out: Mean concentration of Example 40A
  concentration at 28 day: 12.7 ng/mL
Day 35, single IM Example 40A 60 mg/kg, read-out: Mean concentration of Example 40A
  concentration at 35 day: 12.6 ng/mL
Day 42, single IM Example 40A 60 mg/kg, read-out: Mean concentration of Example 40A
  concentration at 42 day: 13.2 ng/mL
Day 49, single IM Example 40A 60 mg/kg, read-out: Mean concentration of Example 40A
  concentration at 49 day: 11.7 ng/mL
Day 56, single IM Example 40A 60 mg/kg, read-out: Mean concentration of Example 40A
  concentration at 56 day: 14.7 ng/mL
Day 63, single IM Example 40A 60 mg/kg, read-out: Mean concentration of Example 40A
  concentration at 63 day: 13 ng/mL
Day 70, single IM Example 40A 60 mg/kg, read-out: Mean concentration of Example 40A
  concentration at 70 day: 12.2 ng/mL
Day 77, single IM Example 40A 60 mg/kg, read-out: Mean concentration of Example 40A
  concentration at 77 day: 11.7 ng/mL
Day 84, single IM Example 40A 60 mg/kg, read-out: Mean concentration of Example 40A
  concentration at 84 day: 10.3 ng/mL

## C#C[C@]1(COP(=O)(N[C@@H](Cc2cc(F)cc(F)c2)C(=O)OCCCCCCCCCCCCCCCCCCCCCC)Oc2ccccc2)O[C@@H](n2cnc3c(N)nc(F)nc32)C[C@@H]1O (single isomer, unassigned) [Example 42B]
Day 7, single IM Example 42B 64 mg/kg
  Mean concentration of EFdA: BQL (BQL = below quantification limit, 0.3 ng/mL for both)
Day 14, single IM Example 42B 64 mg/kg
  Mean concentration of EFdA: BQL (BQL = below quantification limit, 0.3 ng/mL for both)
Day 21, single IM Example 42B 64 mg/kg
  Mean concentration of EFdA: BQL (BQL = below quantification limit, 0.3 ng/mL for both)
Day 28, single IM Example 42B 64 mg/kg
  Mean concentration of EFdA: BQL (BQL = below quantification limit, 0.3 ng/mL for both)
Day 35, single IM Example 42B 64 mg/kg
  Mean concentration of EFdA: BQL (BQL = below quantification limit, 0.3 ng/mL for both)
Day 42, single IM Example 42B 64 mg/kg
  Mean concentration of EFdA: BQL (BQL = below quantification limit, 0.3 ng/mL for both)
Day 49, single IM Example 42B 64 mg/kg
  Mean concentration of EFdA: BQL (BQL = below quantification limit, 0.3 ng/mL for both)
Day 56, single IM Example 42B 64 mg/kg
  Mean concentration of EFdA: BQL (BQL = below quantification limit, 0.3 ng/mL for both)
Day 63, single IM Example 42B 64 mg/kg
  Mean concentration of EFdA: BQL (BQL = below quantification limit, 0.3 ng/mL for both)
Day 70, single IM Example 42B 64 mg/kg
  Mean concentration of EFdA: BQL (BQL = below quantification limit, 0.3 ng/mL for both)
Day 77, single IM Example 42B 64 mg/kg
  Mean concentration of EFdA: BQL (BQL = below quantification limit, 0.3 ng/mL for both)
Day 84, single IM Example 42B 64 mg/kg
  Mean concentration of EFdA: BQL (BQL = below quantification limit, 0.3 ng/mL for both)
